Measured values: patent US11040963B2 (priority 2017, dated 2021)

What was measured:
H1N1 A/PR/8/34-MA = experiment: microbe, parasite or virus in culture; format: cell-based, influenza A virus; details: for EC50: Influenza A virus, MDCK, 96 h, read-out: Virus neutralization assay (VNA), pEC50 H1N1 A/PR/8/34-MA (converted)
in vitro = details: dog, Cytotoxicity (pCC50) MDCK
[1] = target: HA H1 A/California/07/09 (Influenza A virus (A/California/07/2009(H1N1)), UniProt C3W5X2); experiment: biochemical; details: Competition binding (AlphaLISA), pIC50 H1 A/California/07/09
H1N1 A/California/07/09 = experiment: microbe, parasite or virus in culture; format: cell-based, influenza A virus; details: for EC50: Influenza A virus, H1N1, MDCK, 96 h, read-out: Virus neutralization assay (VNA), pEC50 H1N1 A/California/07/09 (converted)
[2] = target: HA H1 A/New Caledonia/20/99 (Influenza A virus (A/New Caledonia/20/1999(H1N1)), UniProt Q6WG00); experiment: biochemical; details: Competition binding (AlphaLISA), pIC50 H1 A/New Caledonia/20/99
[3] = tested on: H1N1 A/New Caledonia/20/99; experiment: microbe, parasite or virus in culture; format: cell-based, influenza A virus; details: for EC50: Influenza A virus, H1N1, MDCK, 96 h, read-out: Virus neutralization assay (VNA), pEC50 H1N1 A/New Caledonia/20/99 (converted)
H5N1 A/Vietnam/1203/04 = experiment: microbe, parasite or virus in culture; format: cell-based, influenza A virus; details: 96 h, average of repeats; for EC50: Influenza A virus, H5N1, MDCK, read-out: Virus neutralization assay (VNA), pEC50 H5N1 A/Vietnam/1203/04, MDCK cells, 96 h, CPE by ATPlite (converted); for Virus neutralization assay (VNA), pEC50 H5N1 A/Vietnam/1203/04: MDCK cells, CPE by ATPlite
[4] = target: HA H5 A/Vietnam/1203/04 (Influenza A virus (A/Vietnam/1203/2004(H5N1)), UniProt Q5EP31); experiment: biochemical; details: Competition binding (AlphaLISA), pIC50 H5 A/Vietnam/1203/04
MDCK cells = details: dog

Structure (SMILES) | EC50 (H1N1 A/PR/8/34-MA) | CC50 (in vitro) | IC50 [1] | EC50 (H1N1 A/California/07/09) | IC50 [2] | EC50 [3] | EC50 (H5N1 A/Vietnam/1203/04) | IC50 [4] | Virus neutralization assay (VNA), pEC50 H1N1 A/PR/8/34-MA (H1N1 A/PR/8/34-MA) | Cytotoxicity (pCC50) MDCK (MDCK cells) | Virus neutralization assay (VNA), pEC50 H1N1 A/California/07/09 (H1N1 A/California/07/09) | Virus neutralization assay (VNA), pEC50 H1N1 A/New Caledonia/20/99 [3] | Virus neutralization assay (VNA), pEC50 H5N1 A/Vietnam/1203/04 (H5N1 A/Vietnam/1203/04)
COC(=O)[C@@H](c1ccccc1)N1CCN(C(=O)c2cccc(-c3nc4ccc(OC)cc4s3)c2)CC1 [Example 19] | 126 nM | > 50100 nM | 20 nM | 251 nM | 15.8 nM | 100 nM | 1580 nM | 200 nM |  |  |  |  | 
COC(=O)[C@@H](c1ccccc1)N1CCN(C(=O)c2cccc(-c3nc4ccc(OC)cc4s3)c2)CC1 [Example 22] |  |  | 15.8 nM |  | 12.6 nM |  |  |  | 6.9 | <4.3 | 6.8 | 6.9 | 5.8
Cc1nnc([C@@H](c2ccccc2)N2CCN(C(=O)c3cccc(-c4nc5cc(C(F)(F)F)ccc5o4)c3)CC2)o1 [Example 27] |  |  | 31.6 nM | 316 nM | 50.1 nM | 316 nM | 39800 nM | 1260 nM |  | <4.3 |  |  | 
COC(=O)C(c1ccccc1)N1CCN(C(=O)c2cccc(-c3nc4ccc(OC)cc4s3)c2)CC1 (stereo not drawn) [Example 29] | 126 nM | 39800 nM | 25.1 nM | 251 nM | 15.8 nM | 158 nM | 3980 nM | 251 nM |  |  |  |  | 
COC(=O)[C@@H](c1ccccc1)C1CCN(C(=O)c2cccc(-c3nc4ccc(OC)cc4s3)c2)CC1 [Example 65] | 631 nM | 39800 nM | 100 nM | 1000 nM | 50.1 nM | 501 nM | 25100 nM | 631 nM |  |  |  |  | 
Cc1nnc([C@@H](c2ccccc2)N2CCN(C(=O)c3cccc(-c4nc5cc(C(F)(F)F)ccc5o4)c3)CC2)o1 [Example 69] |  |  | 63.1 nM |  | 79.4 nM |  |  | 2510 nM |  | 5.0 | 6.4 | 6.2 | 4.5
COC(=O)C(c1ccccc1)N1CCN(C(=O)c2cccc(-c3ccc(OC)cc3)c2)CC1 (stereo not drawn) [Example 83] | 1000 nM | 39800 nM | 398 nM |  | 200 nM |  |  | 2510 nM |  |  | 5.7 | 6.2 | 4.8
O=C(c1cccc(-c2cc3ccccc3o2)c1)N1CCN(Cc2ccccc2)CC1 [Example 85] | 501 nM | 10000 nM | 631 nM | 2510 nM | 316 nM | 631 nM | 12600 nM | 3160 nM |  |  |  |  | 
COC(=O)C(c1ccccc1)C1CCN(C(=O)c2cccc(-c3nc4ccc(OC)cc4s3)c2)CC1 (stereo not drawn) [Example 105] | 2000 nM | > 50100 nM | 126 nM | 3160 nM | 100 nM | 1000 nM | 12600 nM | 2000 nM |  |  |  |  | 
COc1ccc2nc(-c3cccc(C(=O)N4CCN(C(C(C)=O)c5ccccc5)CC4)c3)sc2c1 (stereo not drawn) [Example 106] |  |  | 398 nM | 3160 nM | 200 nM | 1000 nM | > 50100 nM | 2000 nM |  | 4.4 |  |  | 
CCOC(=O)[C@@H](c1ccccc1)N1CCN(C(=O)c2cccc(-c3ccc(OC)cc3)c2)CC1 [Example 114] | 2510 nM | 3980 nM | 100 nM | 2000 nM | 126 nM | 1260 nM | 31600 nM | 398 nM |  |  |  |  | 
COC(=O)C(c1ccccc1)N1CCN(C(=O)c2ccnc(-c3nc4cc(C(F)(F)F)ccc4o3)c2)CC1 (stereo not drawn) [Example 119] |  | 10000 nM | 158 nM | 1000 nM | 158 nM | 1580 nM | 25100 nM | 2000 nM |  |  |  |  | 
CCOC(=O)C(c1ccccc1)N1CCN(C(=O)c2cccc(-c3ccc(OC)cc3)c2)CC1 (stereo not drawn) [Example 120] | 1000 nM | > 50100 nM | 251 nM | 1260 nM | 251 nM | 1580 nM | > 50100 nM | 2510 nM |  |  |  |  | 
